The source of these data is US6509328B1, “Glutamate receptor antagonists” (Hoffmann-La Roche Inc., priority 1999, dated 2003).

Some results are limits rather than exact numbers.

By melting point is commonly meant the temperature of the solid-liquid transition.

In the case of `N#Cc1cccc(C2=Nc3ccc(C4CC4)cc3NC(=O)C2)c1` [Example 111, 3-(7-Cyclopropyl-4-oxo-4,5-dihydro-3H-benzo [b][1,4]diazepin-2-yl)-benzonitrile], the melting point was in the range of 204 to 209 °C. `N#Cc1cc(C2=Nc3ccc(C4CC4)cc3NC(=O)C2)ccn1` [Example 112, 4-(7-Cyclopropyl-4-oxo-4,5-dihydro-3H-benzo[b][1,4]diazepin-2-yl)-pyridine-2-carbonitrile]: the melting point was in the range of 227 to 230 °C. `O=C1CC(c2cccc(-n3ccnn3)c2)=Nc2ccc(C#Cc3ccc(F)cc3)cc2N1` [Example 115, 8-(4-Fluoro-phenylethynyl)-4-(3-[1,2,3]triazol-1-yl-phenyl)-1,3-dihydro-benzo[b][1,4]diazepin-2-one] registered a melting point of 246 to 248 °C. In turn, `N#Cc1cccc(C2=Nc3ccc(-c4cc(F)ccc4F)cc3NC(=O)C2)c1` [Example 125, 3-[7-(2,5-Difluoro-phenyl)-4-oxo-4,5-dihydro-3H-benzo [b][1,4]diazepin-2-yl]-benzonitrile] yielded a melting point of 247 °C. Next, `Cc1cc(-c2cccc(C3=Nc4ccc(-c5ccccc5F)cc4NC(=O)C3)c2)on1` [Example 127, 8-(2-Fluoro-phenyl)-4-[3-(3-methyl-isoxazol-5-yl)-phenyl]-1,3-dihydro-benzo-[b][1,4]diazepin-2-one]: 222 to 224 °C; `N#Cc1cccc(C2=Nc3ccc(C#Cc4ccc(F)cc4F)cc3NC(=O)C2)c1` [Example 130, 3-[7-(2,4-Difluoro-phenylethynyl)-4-oxo-4,5-dihydro-3H-benzo [b][1,4]diazepin-2-yl]-benzonitrile]: 240 to 246 °C; `N#Cc1cccc(C2=Nc3ccc(C#Cc4ccccc4F)cc3NC(=O)C2)c1` [Example 131, 3-[7-(2-Fluoro-phenylethynyl)-4-oxo-4,5-dihydro-3H-benzo[b][1,4]diazepin-2-yl]-benzonitrile]: 213 to 214 °C. Regarding `C#Cc1cccc(C2=Nc3ccc(C#Cc4ccccc4)cc3NC(=O)C2)c1` [Example 133, 4-(3-Ethynyl-phenyl)-8-phenylethynyl-1,3-dihydro-benzo[b][1,4]diazepin-2-one], the melting point is > 250 °C (dec.). `N#Cc1cccc(C2=Nc3ccc(C#CC4=CCOCC4)cc3NC(=O)C2)c1` [Example 138, 3-[7-(3,6-Dihydro-2H-pyran-4-ylethynyl)-4-oxo-4,5-dihydro-3H-benzo [b][1,4]diazepin-2-yl]-benzonitrile] returned a melting point of 238 °C.

Regarding `CC(C)(C)OC(=O)N1CC=C(C#Cc2ccc3c(c2)NC(=O)CC(c2cccc(C#N)c2)=N3)CC1` [Example 139, 4-[2-(3-Cyano-phenyl)-4-oxo-4,5-dihydro-3H-benzo [b][1,4]diazepin-7-ylethynyl]-3,6-dihydro-2H-pyridine-1-carboxylic acid tert.-butyl ester], the melting point turned out to be 239 °C.

In the case of `N#Cc1cccc(C2=Nc3ccc(C#CC4=CCNCC4)cc3NC(=O)C2)c1` [Example 140, 3-[4-Oxo-7-(1,2,3,6-tetrahydro-pyridin-4-ylethynyl)-4,5-dihydro-3H-benzo [b][1,4]diazepin-2-yl]-benzonitrile], the melting point stood at 184 °C.

Turning to `CC(=O)N1CC=C(C#Cc2ccc3c(c2)NC(=O)CC(c2cccc(C#N)c2)=N3)CC1` [Example 141, 3-[7-(1-Acetyl-1,2,3,6-tetrahydro-pyridin-4-ylethynyl)-4-oxo-4,5-dihydro-3H-benzo[b][1,4]diazepin-2-yl]-benzonitrile], the melting point turned out to be 203 °C.

Take `CS(=O)(=O)N1CC=C(C#Cc2ccc3c(c2)NC(=O)CC(c2cccc(C#N)c2)=N3)CC1` [Example 142, 3-[7-(1-Methanesulfonyl-1,2,3,6-tetrahydro-pyridin-4-ylethynyl)-4-oxo-4,5-dihydro-3H-benzo[b][1,4]diazepin-2-yl]-benzonitrile]: the melting point was found to be 235 °C.
